Results as given in BindingDB's records for patent US20240083900 (Biogen Ma, 2024).

Biological target: Tyrosine-protein kinase BTK (Homo sapiens, UniProt Q06187)
Assay: In Vitro BTK Kinase Assay: Btk-PolyGAT-LS Assay
Method: The purpose of the BTK in vitro assay is to determine compound potency against BTK through the measurement of IC50. […] For a typical assay, a 24 μL aliquot of a ATP/peptide master mix (final concentration; ATP 10 μM, polyGAT 100 nM) in kinase buffer (10 mM Tris-HCl pH 7.5, 10 mM MgCl2, 200 μM Na3PO4, 5 mM DTT, 0.01% Triton X-100, and 0.2 mg/ml casein) is added to each well. […] The assay is incubated for 30 minutes before being stopped with 28 μL of a 50 mM EDTA solution. […] The plate is covered and incubated for 45 minutes at room temperature.

Tyrosine-protein kinase BTK, sequence (Q06187 whole entry): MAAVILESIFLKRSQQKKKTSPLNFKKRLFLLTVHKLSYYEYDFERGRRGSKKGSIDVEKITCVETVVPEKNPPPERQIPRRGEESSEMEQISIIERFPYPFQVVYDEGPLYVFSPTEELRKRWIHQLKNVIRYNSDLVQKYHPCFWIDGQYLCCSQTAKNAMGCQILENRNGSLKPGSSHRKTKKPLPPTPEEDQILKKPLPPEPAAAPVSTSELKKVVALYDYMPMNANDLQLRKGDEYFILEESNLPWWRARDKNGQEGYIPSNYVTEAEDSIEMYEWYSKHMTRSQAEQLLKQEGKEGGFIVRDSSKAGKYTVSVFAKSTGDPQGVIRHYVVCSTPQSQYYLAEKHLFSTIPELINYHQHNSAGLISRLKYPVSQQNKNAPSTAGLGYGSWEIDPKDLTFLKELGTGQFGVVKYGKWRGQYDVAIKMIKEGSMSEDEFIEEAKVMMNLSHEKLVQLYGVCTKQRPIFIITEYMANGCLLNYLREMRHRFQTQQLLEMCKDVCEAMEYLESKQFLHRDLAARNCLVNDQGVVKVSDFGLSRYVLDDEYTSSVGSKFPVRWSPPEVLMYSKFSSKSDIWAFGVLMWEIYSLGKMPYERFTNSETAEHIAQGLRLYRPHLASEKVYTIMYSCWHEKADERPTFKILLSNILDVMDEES

Cn1cc(-c2cn3nccc3c(OC3CCN(C(=O)/C=C\CCl)CC3)n2)cn1 [US20240083900, Example 8] was tested. Which IC50 did it give?
The IC50 was less than 1 nM.
